According to paper PMC3679734 (BMC Research Notes, 2013):

What was measured:
human DAT [1] = target: T1, human DAT (Homo sapiens, UniProt Q01959); experiment: Inhibition of DA uptake; assay type: cell-based
T1 construct: expressed in transfected cells; host or cells: HEK-293 cells (Invitrogen, Zug, Switzerland)
Description: The potencies of the drugs to inhibit the DAT were evaluated as previously described in HEK-293 cells (Invitrogen, Zug, Switzerland) stably transfected with the human DAT [8].

human DAT [2] = target: T1, human DAT; experiment: Inhibition of methamphetamine-induced DA release; assay type: cell-based; conditions: HEK-293 cells expressing human DAT preloaded with 3H-DA; release induced with 10 μM methamphetamine, 15 min; means of 3–4 independent experiments and 95% CI
Description: We performed DA transporter mediated release experiments as previously published with slight modification. In brief, HEK-293 cells expressing the human DAT as stated above were cultured in 48 well-plates. Cells were filled with ^3H-DA, washed, and incubated with 250 μL buffer containing the drug alone or in combinations. […] DA release was stopped after 15 min by removing the release buffer from the cells. To quantify the DA release we determined the radioactivity in the cells after another wash step. The residual radioactivity in the cells after methamphetamine alone defined 100% DA release.

human DAT [3] = target: T1, human DAT; design: method as in PMID 22897747; conditions: read-out: DA release potency (EC50); HEK-293 cells expressing human DAT; 95% CI 0.9 μM-[…]; as shown previously ref 25; cited from earlier work

T1 sequence (Q01959 whole entry): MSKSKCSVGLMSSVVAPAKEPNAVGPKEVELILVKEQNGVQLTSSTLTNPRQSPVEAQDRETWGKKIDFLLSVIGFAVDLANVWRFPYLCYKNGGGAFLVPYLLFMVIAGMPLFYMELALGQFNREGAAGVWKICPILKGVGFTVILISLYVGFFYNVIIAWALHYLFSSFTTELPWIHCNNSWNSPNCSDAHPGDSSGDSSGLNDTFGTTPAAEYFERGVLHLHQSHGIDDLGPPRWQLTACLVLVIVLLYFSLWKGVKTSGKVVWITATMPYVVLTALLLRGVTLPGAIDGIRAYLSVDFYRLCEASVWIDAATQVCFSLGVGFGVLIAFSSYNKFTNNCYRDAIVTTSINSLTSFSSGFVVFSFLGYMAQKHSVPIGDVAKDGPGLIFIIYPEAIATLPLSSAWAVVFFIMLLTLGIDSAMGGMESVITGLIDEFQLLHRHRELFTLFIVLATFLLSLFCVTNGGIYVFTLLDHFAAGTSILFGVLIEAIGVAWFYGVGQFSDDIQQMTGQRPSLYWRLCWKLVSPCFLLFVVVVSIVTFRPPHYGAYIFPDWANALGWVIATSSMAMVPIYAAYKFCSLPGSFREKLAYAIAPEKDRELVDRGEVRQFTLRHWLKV

SMILES | IC50 (human DAT [1]; HEK-293 cells stably transfected with the human DAT, means of 3–4 independent experiments and 95% CI, read-out: DA uptake IC50 (95% CI)) [nM] | IC50 (human DAT [2]) [nM] | IC50 (human DAT [1]) [nM] | EC50 (human DAT [3]) [nM]
CCCC(C(=O)c1ccc2c(c1)OCO2)N1CCCC1 (stereo not shown) [MDPV, 3,4-methylenedioxypyrovalerone] | 31 | 280 |  | 
CN[C@@H](C)Cc1ccccc1 [Methamphetamine, d-methamphetamine] |  |  | 1050 | 1560
